Assay results as given in ChEMBL document CHEMBL4814036, “Synthesis and anti-fibrotic effects of santamarin derivatives as cytotoxic agents against hepatic stellate cell line LX2” (Bioorg Med Chem Lett, 2021).
Values after ≈ are worked out from the molar mass of the structure shown. One block for each compound: values may come before it. Active and inactive are the calls of the source. The calls are words filed in the database; no cut-off is given here.

Columns and labels:
[1] = Cytotoxicity against human LX2 cells assessed as reduction in cell viability by MTT assay; type: functional, cell-based; conditions: LX-2
[2] = Inhibition of laminin deposition in human LX2 cells; type: functional, cell-based; conditions: lx-2
[3] = Inhibition of collagen type 1 deposition in human LX2 cells; type: functional, cell-based; conditions: lx-2
[4] = Inhibition of hyaluronic acid deposition in human LX2 cells; type: functional, cell-based; conditions: lx-2
[5] = Potency index, ratio of STM IC50 to test compound IC50 for inhibition of hyaluronic acid deposition in human LX2 cells; type: functional, LX-2
[6] = Potency index, ratio of STM IC50 to test compound IC50 for cytotoxicity against human LX2 cells; type: functional, LX-2
[7] = Potency index, ratio of STM IC50 to test compound IC50 for inhibition of laminin deposition in human LX2 cells; type: functional, LX-2
LS174T = test: Growth inhibition of human LS174T cells incubated for 72 hrs by methylene blue staining based assay; type: functional, cell-based
L1210 = test: Growth inhibition of mouse L1210 cells incubated for 24 to 48 hrs by trypan blue exclusion assay; type: functional, cell-based
[8] = Inhibition of hyaluronic acid deposition in human LX2 cells incubated for 72 hrs by ELISA; type: functional, cell-based; conditions: lx-2
CCRF-CEM = test: Growth inhibition of human CCRF-CEM cells incubated for 24 to 48 hrs by trypan blue exclusion assay; type: functional, cell-based
[9] = Inhibition of laminin deposition in human LX2 cells incubated for 72 hrs by ELISA; type: functional, cell-based; conditions: lx-2
[10] = Inhibition of collagen type 1 deposition in human LX2 cells incubated for 72 hrs by ELISA; type: functional, cell-based; conditions: lx-2
[11] = Cytotoxicity against human LX2 cells assessed as reduction in cell viability incubated for 48 hrs by MTT assay; type: functional, cell-based; conditions: LX-2, 48 h
KB = test: Growth inhibition of human KB cells incubated for 72 hrs by methylene blue staining based assay; type: functional, cell-based
MCF7 = test: Growth inhibition of human MCF7 cells incubated for 72 hrs by methylene blue staining based assay; type: functional, cell-based; conditions: MCF7, 72 h
LX-2 = test: Cytotoxicity against human LX2 cells assessed as reduction in cell viability at 100 uM by MTT assay; type: functional, cell-based

SMILES: C=C1C(=O)O[C@@H]2[C@H]3C(C)=CC[C@@H](OC(=O)/C=C/c4ccc(OC(C)=O)cc4)[C@]3(C)CC[C@@H]12
IC50 [1]: 21.5 µM

SMILES: C=C1C(=O)O[C@@H]2[C@H]3C(C)=CC[C@@H](OC(=O)CCCC(=O)O[C@@H]4CC=C(C)[C@@H]5[C@H]6OC(=O)C(=C)[C@@H]6CC[C@]54C)[C@]3(C)CC[C@@H]12
IC50 [1]: 11.1 µM

SMILES: C=C1C(=O)O[C@@H]2[C@H]3C(C)=CC[C@@H](OC(=O)c4cccc(C(F)(F)F)c4)[C@]3(C)CC[C@@H]12
IC50 [1]: 11.5 µM

IC50 [2]: 83.7 µM
IC50 [3]: 51.5 µM
IC50 [4]: 164 µM
SMILES: COc1cc([C@H]2Oc3cc([C@H]4Oc5cc(O)cc(O)c5C(=O)[C@@H]4O)ccc3O[C@@H]2CO)ccc1O [SILYBIN A]
IC50 [1]: 151 µM

SMILES: C=C1C(=O)O[C@@H]2[C@H]3C(C)=CC[C@@H](OC(=O)/C=C/c4ccncc4)[C@]3(C)CC[C@@H]12
IC50 [1]: 16.1 µM

IC50 [2]: 6.6 µM
IC50 [3]: 16.2 µM
IC50 [4]: 17.9 µM
SMILES: C=C1C(=O)O[C@@H]2[C@H]3C(C)=CC[C@@H](OC(=O)CCC(=O)O[C@@H]4CC=C(C)[C@@H]5[C@H]6OC(=O)C(=C)[C@@H]6CC[C@]54C)[C@]3(C)CC[C@@H]12
Ratio IC50 [5]: 3
Ratio IC50 [6]: 5
IC50 [1]: 3.5 µM
Ratio IC50 [7]: 3

IC50 [2]: 3.3 µM
IC50 [3]: 6.1 µM
IC50 [4]: 7.6 µM
SMILES: C=C1C(=O)O[C@@H]2[C@H]3C(C)=CC[C@@H](OC(=O)/C=C/c4c(F)c(F)c(F)c(F)c4F)[C@]3(C)CC[C@@H]12
Ratio IC50 [5]: 8
Ratio IC50 [6]: 4
IC50 [1]: 4.6 µM
Ratio IC50 [7]: 6

SMILES: C=C1C(=O)O[C@@H]2[C@H]3C(C)=CC[C@@H](OC(=O)/C=C/c4ccccc4)[C@]3(C)CC[C@@H]12
IC50 [1]: 17.6 µM

IC50 [2]: 7.3 µM
IC50 [3]: 14.7 µM
IC50 [4]: 21.2 µM
SMILES: C=C1C(=O)O[C@@H]2[C@H]3C(C)=CC[C@@H](OC(=O)/C=C/c4cccc(C(F)(F)F)c4)[C@]3(C)CC[C@@H]12
Ratio IC50 [5]: 3
Ratio IC50 [6]: 3
IC50 [1]: 6.4 µM
Ratio IC50 [7]: 3

SMILES: C=C1C(=O)O[C@@H]2[C@H]3C(C)=CC[C@@H](OC(=O)C4CCCC4)[C@]3(C)CC[C@@H]12
IC50 [1]: 11.9 µM

IC50 (L1210): 0.16 µg/mL (≈ 0.644 µM)
IC50 [8]: > 60 µM
IC50 (CCRF-CEM): 0.16 µg/mL (≈ 0.644 µM)
IC50 [9]: 18.6 µM
IC50 [10]: 7.3 µM
IC50 (KB): 0.16 µg/mL (≈ 0.644 µM)
IC50 (MCF7): 0.16 µg/mL (≈ 0.644 µM)
SMILES: C=C1C(=O)O[C@@H]2[C@H]3C(C)=CC[C@@H](O)[C@]3(C)CC[C@@H]12 [SANTAMARIN]
IC50 (LS174T): 0.16 µg/mL (≈ 0.644 µM)
IC50 [11]: 16.5 µM

SMILES: C=C1C(=O)O[C@@H]2[C@H]3C(C)=CC[C@@H](OC(=O)CCCCCCC)[C@]3(C)CC[C@@H]12
IC50 [1]: 32.4 µM

SMILES: CC1=CC[C@@H](O)[C@]2(C)CC[C@@H]3[C@H](OC(=O)[C@H]3CN(C)C)[C@@H]12
Activity (LX-2): inactive

SMILES: C=C1C(=O)O[C@@H]2[C@H]3C(C)=CC[C@@H](OC(=O)CCC(=O)Oc4ccc(-n5cc(C)ccc5=O)cc4)[C@]3(C)CC[C@@H]12
IC50 [1]: 55.9 µM

SMILES: C=C1C(=O)O[C@@H]2[C@H]3C(C)=CC[C@@H](OC(=O)c4cccs4)[C@]3(C)CC[C@@H]12
IC50 [1]: 31.3 µM

SMILES: C=C1C(=O)O[C@@H]2[C@H]3C(C)=CC[C@@H](OC(=O)/C=C/c4ccccc4C(F)(F)F)[C@]3(C)CC[C@@H]12
IC50 [1]: 16.5 µM

SMILES: C=C1[C@H](O)C[C@@H](O)[C@]2(C)CC[C@H]3C(=C)C(=O)O[C@@H]3[C@@H]12
IC50 [1]: 43.3 µM

SMILES: C=C1C(=O)O[C@@H]2[C@H]3C(C)=CCC(=O)[C@]3(C)CC[C@@H]12
IC50 [1]: 44.4 µM

SMILES: C=C1C(=O)O[C@@H]2[C@H]3C(C)=CC[C@@H](OC(=O)/C=C/c4ccc(F)cc4)[C@]3(C)CC[C@@H]12
IC50 [1]: 21 µM

SMILES: C=C1C(=O)O[C@@H]2[C@@H]3[C@@](C)(CC[C@@H]12)[C@H](O)C[C@H]1O[C@@]31C
IC50 [1]: 47.4 µM

SMILES: C=C1C(=O)O[C@@H]2[C@H]3C(C)=CC[C@@H](OC(=O)c4ccc(C(=O)O[C@@H]5CC=C(C)[C@@H]6[C@H]7OC(=O)C(=C)[C@@H]7CC[C@]65C)cc4)[C@]3(C)CC[C@@H]12
IC50 [1]: 9 µM

SMILES: C=C1C(=O)O[C@@H]2[C@H]3C(C)=CC[C@@H](OC(=O)c4ccccc4)[C@]3(C)CC[C@@H]12
IC50 [1]: 16.9 µM

SMILES: C=C1C(=O)O[C@@H]2[C@H]3C(C)=CC[C@@H](OC(=O)/C=C/c4ccc(C(F)(F)F)cc4)[C@]3(C)CC[C@@H]12
IC50 [1]: 16.3 µM

SMILES: C=C1C(=O)O[C@@H]2[C@H]3C(C)=CC[C@@H](OC(C)=O)[C@]3(C)CC[C@@H]12
IC50 [1]: 12.3 µM

SMILES: C=C1C(=O)O[C@@H]2[C@H]3C(C)=CC[C@@H](OC(=O)/C=C/c4ccc(C=O)cc4)[C@]3(C)CC[C@@H]12
IC50 [1]: 45.5 µM

SMILES: C=C1C(=O)O[C@@H]2[C@H]3C(C)=CC[C@@H](OC(=O)c4ccc(-n5cc(C)ccc5=O)cc4)[C@]3(C)CC[C@@H]12
IC50 [1]: 55.9 µM

SMILES: C=C1C(=O)O[C@@H]2[C@H]3C(C)=CC[C@@H](OC(=O)c4cccnc4)[C@]3(C)CC[C@@H]12
IC50 [1]: 27.6 µM

SMILES: C=C1C(=O)O[C@@H]2[C@H]3C(C)=CC[C@@H](OC(=O)CCC(=O)O)[C@]3(C)CC[C@@H]12
IC50 [1]: 92 µM
